No end group written: not given here.

The subject of this assay is oxytocin secretion. The assay can be described thus: Effect of third intraventricular administration of PrRP (19P2-L31) on amount of oxytocin secreted in plasma (radioimmunoassay). The class given is in vivo, Mature male Wistar rats. As to the method: Mature male Wistar rats (weighing 350 to 380 g at the time of surgery) were anesthetized by intraperitoneal administration of 50 mg/kg pentobarbital, and were fixed in a rat brain stereotactic instrument. The brace bar was lowered 3.3 mm from the intra-oral line. The cranial bone was exposed, and a dental drill was used to perforate the bone in order to implant a guide cannula AG-12 (inside diameter 0.4 mm, outside diameter 0.5 mm, Eicom) into the third ventricle. Anchor screws were embedded in four locations around the cannula. The stainless steel guide cannula AG-12 was inserted to a position at the top of the third ventricle. Position coordinates were AP: +7.1 mm, L: 0.0 mm, and H: +2.0 mm, in accordance with the atlas of Paxinos and Watson (1986). The guide cannula was secured to the cranial bone using instant adhesive, dental cement, and the anchor screws. A stainless steel dummy cannula AD-12 (outside diameter 0.35 mm, Eicom) was inserted into the guide cannula and secured with a cap nut (Eicom). Following surgery, the rats were bred in individual cages.
Animal were given about 1 week to recover after implantation of the guide cannulas, and blood was drawn as the animals were allowed to move freely. Rats which had undergone the aforementioned surgery were anesthetized by intraperitoneal administration of 50 mg/kg pentobarbital. […]

As to “PrRP (19P2-L31): physiologically active peptide, ligand for G protein-coupled receptors phGR3 (GPR10) and UHR-1; described in Nature 393:272–276 (1998) and WO 97/24436 (SRTHRHSMEIRTPDINPAWYASRGIRPVGRF; ends and bridges not checked; UniProt P81277 23-53, looked up)”, the “oxytocin concentration in blood relative to control group” value (rat, 10 nmol to the third ventricle, 5 minutes after administration, FIG. 2) is “about 2 times”. The “oxytocin concentration in blood after intraventricular administration” value (rats, intraventricular administration, result in words) is listed as “elevated oxytocin concentration in blood”.

The record behind these values is patent US7045497B1, “Use of peptide” (Takeda Chemical Industries, Ltd., priority 1998, dated 2006).
